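Protocol summary: plate cells (96-well), add compound at 5 concentrations, incubate 48 h, interpolate endpoints linearly. TGI marks complete inhibition of growth.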

Test systems include ACHN renal; NCI-H460 lung; LXFL 529 NSCLC; DMS 273 small cell lung; IGROV1 ovarian; TK-10 renal; OVCAR-3 ovarian; HT29 colon; M19-MEL melanoma; DLD-1 colon; MOLT-4 leukemia.
Assay in all cases: DTP human tumour cell line panel, 48 h

As to `CC1C[C@H](C)CC(C(O)CC2CC(=O)N(Cc3ccccc3)C(=O)C2)C1O` (stereo not given in full), the TGI in the test on ACHN renal, with NCI-H460 lung, in the test on LXFL 529 NSCLC, in the test with DMS 273 small cell lung, in the test on IGROV1 ovarian and in the test with TK-10 renal was more than 100 µM throughout. Moreover, the TGI with OVCAR-3 ovarian, in the test on HT29 colon, in the test on M19-MEL melanoma, in the test with DLD-1 colon and in the test on MOLT-4 leukemia was more than 100 µM in each case.
On to `O=C(c1ccccc1)N1C2CCC1C(C(F)(F)F)=C2C(F)(F)F`, for which the TGI in the test on NCI-H460 lung, in the test with LXFL 529 NSCLC, in the test with DMS 273 small cell lung, with IGROV1 ovarian, in the test on TK-10 renal and in the test with OVCAR-3 ovarian was more than 100 µM each time. In addition, the TGI in the test with HT29 colon, in the test on M19-MEL melanoma, in the test with DLD-1 colon and in the test with MOLT-4 leukemia was more than 100 µM throughout.
With `CC(=O)OC1CCCn2c1nc1c2C(=O)C(C)=C(N2CC2)C1=O` (stereo not given), the concentration for total growth inhibition (TGI) (usually the concentration giving total growth inhibition) was found to be 1.25 µM in the test on ACHN renal; 0.296 µM in the test with NCI-H460 lung; 1.66 µM in the test with LXFL 529 NSCLC; 0.552 µM in the test with DMS 273 small cell lung; 3.35 µM in the test with IGROV1 ovarian; 7.28 µM in the test on TK-10 renal. Also, the total growth inhibition concentration (TGI) in the test with OVCAR-3 ovarian was 1.39 µM; in the test with HT29 colon, 0.645 µM; with M19-MEL melanoma, 1.63 µM; with DLD-1 colon, 10.9 µM; with MOLT-4 leukemia, more than 100 µM.
Take `CC1SC2=NC3=C(c4ccccc4C3=O)C(c3ccc(Cl)cc3)N2C1=O` (stereo not given): the TGI in the test on ACHN renal, with NCI-H460 lung, with LXFL 529 NSCLC, with DMS 273 small cell lung, in the test with IGROV1 ovarian and in the test with TK-10 renal was more than 100 µM throughout. In addition, the TGI in the test with OVCAR-3 ovarian, with HT29 colon, in the test on M19-MEL melanoma, in the test with DLD-1 colon and with MOLT-4 leukemia was more than 100 µM in each case.
On to `CNCc1cc(OC)ccc1-c1ccc(OC)c(OC)c1OC`, for which the TGI in the test on ACHN renal, in the test with NCI-H460 lung, in the test with LXFL 529 NSCLC, in the test on DMS 273 small cell lung, in the test on IGROV1 ovarian and with TK-10 renal was more than 100 µM each time. Moreover, the TGI in the test on OVCAR-3 ovarian, in the test on HT29 colon, in the test with M19-MEL melanoma, in the test on DLD-1 colon and with MOLT-4 leukemia was more than 100 µM throughout.
On to `CC1CC(=O)Nc2ccccc2N1C(=O)CN1CCC(CCCCN(C)C)CC1` (stereo not given), for which the TGI with ACHN renal, in the test on NCI-H460 lung, in the test on LXFL 529 NSCLC, in the test with DMS 273 small cell lung, in the test on IGROV1 ovarian and with TK-10 renal was more than 100 µM in each case. For the same molecule, the TGI in the test with OVCAR-3 ovarian, with HT29 colon, in the test with M19-MEL melanoma, in the test with DLD-1 colon and in the test on MOLT-4 leukemia was more than 100 µM in each case.
As to `CC(=O)c1ccc(OCC(O)CO)cc1` (stereo not given), the TGI in the test with ACHN renal, in the test with NCI-H460 lung, in the test with LXFL 529 NSCLC, with DMS 273 small cell lung, in the test with IGROV1 ovarian and in the test with TK-10 renal was more than 100 µM each time. Further, the TGI in the test with OVCAR-3 ovarian, with HT29 colon, in the test on M19-MEL melanoma, in the test on DLD-1 colon and in the test on MOLT-4 leukemia was more than 100 µM each time.
On to `CC[P+](C)(C)c1ccccc1`, for which the TGI in the test on ACHN renal, with NCI-H460 lung, in the test on LXFL 529 NSCLC, in the test with DMS 273 small cell lung, with IGROV1 ovarian and in the test on TK-10 renal was more than 100 µM in each case. Besides, the concentration for total growth inhibition (TGI) in the test with OVCAR-3 ovarian, with HT29 colon, with M19-MEL melanoma, in the test on DLD-1 colon and with MOLT-4 leukemia was more than 100 µM in each case.
In the case of `CC1=NOC(=O)/C1=C/c1cccc2ccccc12`, the TGI in the test with ACHN renal, in the test with NCI-H460 lung, in the test on LXFL 529 NSCLC, in the test on DMS 273 small cell lung, in the test on IGROV1 ovarian and in the test on TK-10 renal was more than 100 µM each time. For the same molecule, the TGI in the test on OVCAR-3 ovarian, in the test on HT29 colon, in the test with M19-MEL melanoma, in the test on DLD-1 colon and in the test with MOLT-4 leukemia was more than 100 µM in each case.
For `NNC(=O)CNC(=O)c1ccc(Cl)cc1Cl`, the TGI in the test with ACHN renal, in the test with NCI-H460 lung, in the test with LXFL 529 NSCLC, with DMS 273 small cell lung, in the test with IGROV1 ovarian and with TK-10 renal was more than 100 µM throughout. Further, the TGI in the test with OVCAR-3 ovarian, with HT29 colon, in the test on M19-MEL melanoma, with DLD-1 colon and in the test on MOLT-4 leukemia was more than 100 µM each time.
`CC(=O)Nc1cc(N(CCOS(C)(=O)=O)CCOS(C)(=O)=O)ccc1N=O`: the TGI in the test with ACHN renal, in the test on NCI-H460 lung, in the test with LXFL 529 NSCLC, with DMS 273 small cell lung, with IGROV1 ovarian and in the test on TK-10 renal was more than 100 µM in each case. In addition, the TGI in the test with OVCAR-3 ovarian, in the test with HT29 colon, with M19-MEL melanoma, in the test on DLD-1 colon and in the test with MOLT-4 leukemia was more than 100 µM in each case.
As for `CC(/C(=N\Nc1ccccc1)c1ccc(O)cc1)C1C(=O)Oc2ccccc21` (stereo not given), the TGI in the test with ACHN renal, in the test on NCI-H460 lung, in the test with LXFL 529 NSCLC, with DMS 273 small cell lung, in the test on IGROV1 ovarian and in the test on TK-10 renal was more than 100 µM in each case. Moreover, the concentration for total growth inhibition (TGI) in the test on OVCAR-3 ovarian, in the test with HT29 colon, in the test on M19-MEL melanoma, in the test with DLD-1 colon and in the test on MOLT-4 leukemia was more than 100 µM in each case.
On to `O=C(O)C[C@H]1CCCCC12CCOC2=O` (stereo not given in full), for which the TGI in the test with ACHN renal, in the test with NCI-H460 lung, in the test on LXFL 529 NSCLC, in the test on DMS 273 small cell lung, with IGROV1 ovarian and in the test with TK-10 renal was more than 100 µM each time. Besides, the TGI in the test with OVCAR-3 ovarian, in the test on HT29 colon, in the test with M19-MEL melanoma, in the test on DLD-1 colon and in the test with MOLT-4 leukemia was more than 100 µM each time.
`COC(=O)C(Cc1cc(OC)c(OC)c(OC)c1)c1ccc(OC)cc1` (stereo not given): the TGI with ACHN renal, in the test with NCI-H460 lung, with LXFL 529 NSCLC, in the test on DMS 273 small cell lung, with IGROV1 ovarian and in the test with TK-10 renal was more than 100 µM in each case. Besides, the TGI in the test with OVCAR-3 ovarian, in the test with HT29 colon, with M19-MEL melanoma, in the test on DLD-1 colon and in the test on MOLT-4 leukemia was more than 100 µM each time.
As to `N#Cc1c2c(c(N=P(c3ccccc3)(c3ccccc3)c3ccccc3)n3c1nc1ccccc13)CCCC2`, the TGI with ACHN renal is 67.5 µM; with NCI-H460 lung, 56.5 µM; in the test on LXFL 529 NSCLC, more than 100 µM; with DMS 273 small cell lung, 56.1 µM; with IGROV1 ovarian, more than 100 µM; in the test on OVCAR-3 ovarian, 86.1 µM. Also, the TGI in the test on HT29 colon was 74.9 µM; in the test with M19-MEL melanoma it was 67.8 µM; with DLD-1 colon it was more than 100 µM; in the test on MOLT-4 leukemia, 64.2 µM.
On to `Cc1cc2c(cc1C)[n+](=O)c(C(=O)C/C(=N/OCCCc1ccccc1)C(=O)Nc1cc(Cl)ccc1Cl)c(C)n2[O-]`, for which the TGI in the test with ACHN renal, in the test with NCI-H460 lung, with LXFL 529 NSCLC, with DMS 273 small cell lung, in the test with IGROV1 ovarian and in the test with TK-10 renal was more than 100 µM in each case. The TGI in the test on OVCAR-3 ovarian, with HT29 colon, in the test with M19-MEL melanoma, with DLD-1 colon and in the test with MOLT-4 leukemia was more than 100 µM each time.
Turning to `CO[C@@H]1C=C[C@@]23c4cc5c(cc4C(=O)O[C@H]2CN(C)[C@H]3C1)OCO5`, the TGI with ACHN renal, in the test with NCI-H460 lung, in the test with LXFL 529 NSCLC, in the test with DMS 273 small cell lung, in the test on IGROV1 ovarian and in the test on TK-10 renal was more than 100 µM each time. The TGI with OVCAR-3 ovarian, with HT29 colon, in the test on M19-MEL melanoma, with DLD-1 colon and in the test with MOLT-4 leukemia was more than 100 µM throughout.
With `Cc1ccc(NC(=O)C(=O)C(C#N)c2nc(-c3ccc(-c4ccccc4)cc3)cs2)c(C)c1` (stereo not given), the TGI in the test on ACHN renal, with NCI-H460 lung, with LXFL 529 NSCLC, in the test on DMS 273 small cell lung, in the test on IGROV1 ovarian and in the test on TK-10 renal was more than 100 µM throughout. The TGI was more than 100 µM in the test on OVCAR-3 ovarian; more than 1 µM in the test on HT29 colon; more than 100 µM in the test on M19-MEL melanoma; more than 100 µM with DLD-1 colon; more than 100 µM in the test on MOLT-4 leukemia.
With `CCc1c(Cc2[nH]c(Cc3[nH]c(C=O)c(C)c3CC)c(CC)c2CC)[nH]c(C=O)c1C`, the TGI in the test with ACHN renal, with NCI-H460 lung, with LXFL 529 NSCLC, in the test with DMS 273 small cell lung, in the test on TK-10 renal and with OVCAR-3 ovarian was more than 100 µM in each case. Moreover, the TGI in the test with HT29 colon, with M19-MEL melanoma, in the test with DLD-1 colon and in the test with MOLT-4 leukemia was more than 100 µM each time.
Turning to `CCCCCCCCCCCCCC(=O)OCC1OC(n2cc(F)c(=O)[nH]c2=O)C(NC(=O)OCc2ccccc2)C(OC(=O)CCCCCCCCCCCCC)C1O` (stereo not given), the total growth inhibition concentration (TGI) with ACHN renal, in the test with NCI-H460 lung, in the test on LXFL 529 NSCLC, with DMS 273 small cell lung, in the test with IGROV1 ovarian and in the test on TK-10 renal was more than 100 µM each time. In addition, the TGI with OVCAR-3 ovarian, with HT29 colon, with M19-MEL melanoma, with DLD-1 colon and in the test with MOLT-4 leukemia was more than 100 µM throughout.
On to `COC(=O)/C=C(\C(=O)OC)c1c2c3c(cc(OC)c(OC)c3c3ccccc13)CCN2C`, for which the TGI was more than 100 µM in the test with ACHN renal; more than 100 µM with NCI-H460 lung; more than 100 µM with LXFL 529 NSCLC; 50.9 µM with DMS 273 small cell lung; 99.4 µM in the test on IGROV1 ovarian; more than 100 µM in the test with TK-10 renal. The TGI was more than 100 µM in the test on OVCAR-3 ovarian; more than 100 µM in the test on HT29 colon; more than 100 µM in the test on M19-MEL melanoma; more than 100 µM in the test on DLD-1 colon; 89.5 µM with MOLT-4 leukemia.
For `CCCCCCCCOCC(O)COC(=O)CCCCCCC` (stereo not given), the concentration for total growth inhibition (TGI) with ACHN renal, in the test on NCI-H460 lung, with LXFL 529 NSCLC, in the test on DMS 273 small cell lung, with IGROV1 ovarian and in the test with TK-10 renal was more than 100 µM in each case. The concentration for total growth inhibition (TGI) in the test on OVCAR-3 ovarian was 64.8 µM; with HT29 colon, more than 100 µM; with M19-MEL melanoma it was more than 100 µM; in the test with DLD-1 colon, more than 100 µM; with MOLT-4 leukemia, more than 100 µM.
Turning to `COc1ccc(C2CC(c3cc(C)ccc3O)=NC(N)=N2)cc1` (stereo not given), the TGI in the test on ACHN renal, in the test with NCI-H460 lung, in the test with LXFL 529 NSCLC, in the test with DMS 273 small cell lung, with IGROV1 ovarian and with TK-10 renal was more than 100 µM throughout. In addition, the TGI in the test with OVCAR-3 ovarian, with HT29 colon, in the test on M19-MEL melanoma, with DLD-1 colon and with MOLT-4 leukemia was more than 100 µM in each case.

The values above are taken from PubChem BioAssay (NCI).
